Laboratory results from article PMC9813676 (Current Research in Food Science, 2022).

Legend:
[1] = target: T1, porcine pancreatic lipase (Sus scrofa, UniProt P00591); experiment: Fluorescence titration of lipase; format: binding; conditions: for n (number of binding sites) / binding affinity with lipase (in words): fluorescence titration; for n (number of binding sites): excitation 280 nm, Tris-HCl pH 8.0
T1 sequence (P00591 1-450): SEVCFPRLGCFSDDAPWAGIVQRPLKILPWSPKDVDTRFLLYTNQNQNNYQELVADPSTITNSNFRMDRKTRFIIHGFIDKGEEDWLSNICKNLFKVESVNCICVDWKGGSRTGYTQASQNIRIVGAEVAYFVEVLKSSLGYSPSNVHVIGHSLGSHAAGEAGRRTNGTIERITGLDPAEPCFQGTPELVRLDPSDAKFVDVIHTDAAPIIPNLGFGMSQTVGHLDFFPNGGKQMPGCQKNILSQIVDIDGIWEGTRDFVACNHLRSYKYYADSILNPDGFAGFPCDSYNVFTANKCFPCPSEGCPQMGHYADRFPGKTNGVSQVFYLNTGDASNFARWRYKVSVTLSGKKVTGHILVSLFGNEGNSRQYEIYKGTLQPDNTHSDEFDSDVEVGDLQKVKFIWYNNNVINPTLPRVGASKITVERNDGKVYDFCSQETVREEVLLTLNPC

[2] = target: T1, porcine pancreatic lipase; experiment: Inhibitory activity on pancreatic lipase; conditions: IC50, pNPP substrate, Tris-HCl pH 8.0, 37 °C, means ± SD of triplicate
[3] = rats, cited from earlier work
pancreatic lipase = conditions: ref Kumar and Alagawadi, 2013; cited from earlier work
[4] = ref Zhi et al., 1999; cited from earlier work
[5] = oral administration, ref Zhou et al., 2021

SMILES	Kd [1]	n (number of binding sites) [1]	IC50 [2]	further results
O=c1cc(-c2ccc(O)cc2)oc2cc(O)cc(O)c12 [Apigenin]	3.86 µM	1.156	256 ± 54 µM	–
Oc1cc(O)c2c(c1)O[C@H](c1ccc(O)c(O)c1)[C@H](O)C2 [Epicatechin]	3160 µM	0.734	> 20700 µM	binding affinity with lipase (in words) [1]: very weak binding affinity
Oc1cc(O)c2c(c1)O[C@H](c1cc(O)c(O)c(O)c1)[C@H](O)C2 [Epigallocatechin]	5820 µM	0.670	> 49000 µM	binding affinity with lipase (in words) [1]: very weak binding affinity
O=c1c(-c2ccc(O)cc2)coc2cc(O)cc(O)c12 [Genistein]	4.94 µM	1.129	> 2960 µM	–
O=c1c(-c2ccc(O)cc2)coc2cc(O[C@@H]3O[C@H](CO)[C@@H](O)[C@H](O)[C@H]3O)cc(O)c12 [Genistin]	10.8 µM	1.086	> 925 µM	–
O=c1cc(-c2ccc(O)c(O)c2)oc2cc(O)c([C@@H]3O[C@H](CO)[C@@H](O)[C@H](O)[C@H]3O)c(O)c12 [Isoorientin]	4.66 µM	1.278	–	–
O=c1c(O)c(-c2ccc(O)cc2)oc2cc(O)cc(O)c12 [Kaempferol]	4.06 µM	1.163	> 983 µM	–
O=C1C[C@@H](c2ccc(O)cc2)Oc2cc(O)cc(O)c21 [Naringenin]	33.3 µM	1.013	6032 ± 41 µM	–
CCCCCCCCCCC[C@@H](C[C@@H]1OC(=O)[C@H]1CCCCCC)OC(=O)[C@H](CC(C)C)NC=O [Orlistat]	–	–	–	absorption in circulatory blood [4]: poorly absorbed
O=c1c(O)c(-c2ccc(O)c(O)c2)oc2cc(O)cc(O)c12 [Quercetin]	–	1.419	–	fat absorption in the gastrointestinal tract [3, 5]: significantly reduced fat absorption; fat excretion in feces [3, 5]: increased fat excretion in feces
C[C@@H]1O[C@@H](OC[C@H]2O[C@@H](Oc3c(-c4ccc(O)c(O)c4)oc4cc(O)cc(O)c4c3=O)[C@H](O)[C@@H](O)[C@@H]2O)[C@H](O)[C@H](O)[C@H]1O [Rutin]	5.38 µM	1.115	367 ± 182 µM	–

Further compounds by falling Kd [1], results first:

Kd [1]	n (number of binding sites) [1]	IC50 [2]	SMILES	further results
151 µM	0.850	7316 ± 66 µM	C[C@@H]1O[C@@H](O[C@H]2C(=O)c3c(O)cc(O)cc3O[C@@H]2c2ccc(O)c(O)c2)[C@H](O)[C@H](O)[C@H]1O [Astilbin]	–
141 µM	0.877	> 1150 µM	O=c1c(-c2ccc(O)cc2)coc2cc(O[C@@H]3O[C@H](CO)[C@@H](O)[C@H](O)[C@H]3O)ccc12 [Daidzin]	–
105 µM	0.911	7170 ± 418 µM	O=C1c2c(O)cc(O)cc2O[C@H](c2cc(O)c(O)c(O)c2)[C@H]1O [Dihydromyricetin]	–
83.2 µM	0.926	> 1860 µM	COc1ccc(-c2coc3cc(O)ccc3c2=O)cc1 [Formononetin]	–
56.2 µM	0.956	3870 ± 939 µM	O=C1c2c(O)cc(O)cc2OC(c2ccc(O)c(O)c2)C1O (stereo not shown) [Taxifolin]	–
41.4 µM	0.998	3030 ± 829 µM	COc1ccc([C@@H]2CC(=O)c3c(O)cc(O)cc3O2)cc1O [Hesperetin]	–
16.3 µM	0.964	> 593 µM	O=c1cc(-c2ccccc2)oc2cc(O)cc(O)c12 [Chrysin]	–
13.7 µM	1.097	574 ± 132 µM	O=c1c(O)c(-c2ccccc2)oc2cc(O)cc(O)c12 [Galangin]	anti-obesity effects ([3]; ref Kumar and Alagawadi, 2013): exhibited anti-obesity effects; inhibition on pancreatic lipase activity (pancreatic lipase): dose-dependent inhibition
11.6 µM	1.101	852 ± 667 µM	O=c1c(-c2ccc(O)cc2)coc2cc(O)ccc12 [Daidzein]	–
10.9 µM	1.086	> 1160 µM	COc1ccc(-c2coc3cc(O[C@@H]4O[C@H](CO)[C@@H](O)[C@H](O)[C@H]4O)ccc3c2=O)cc1 [Ononin]	–
1.43 µM	1.232	16800 ± 692 µM	O=c1c(-c2ccc(O)cc2)coc2c([C@@H]3O[C@H](CO)[C@@H](O)[C@H](O)[C@H]3O)c(O)ccc12 [Puerarin]	–
0.671 µM	1.270	156 ± 22 µM	O=c1cc(-c2ccccc2)oc2cc(O)c(O)c(O)c12 [Baicalein]	–
0.156 µM	1.435	99 ± 11 µM	O=c1cc(-c2ccc(O)c(O)c2)oc2cc(O)cc(O)c12 [Luteolin]	–
